# Tested on: Rhino-Maus
# Experiment: Rhino mouse model: reduction of utriculus diameter after topical application (comedolytic activity)
# Type: in vivo
# Settings: 100 µl on the back, once daily, 5 days per week, 2 weeks, versus untreated control group
# Excerpt: Die antiarthritische Wirkung der erfindungsgemäßen Verbindungen kann in üblicher Weise im Tierexperiment im Adjuvans-Arthritis-Modell bestimmt werden. Die dermatologische Aktivität, beispielsweise für die Behandlung von Akne, kann u. a. durch die komedolytische Aktivität und die Fähigkeit nachgewiesen werden, die Anzahl der Zysten im Modell der Rhino--Maus zu reduzieren.
# Diese Methode ist von L. H. Kligman et al in The Journal of Investigative Dermatology 73, 354 - 358 (1979) und von J.A. Mezick et al. in "Models of Dermatalogy" (Ed. Maibach, Läwe), Vol. 2, S. 59-63, Karger, Basel 1985) beschrieben.
# Die Testsubstanz wurde in einem geeigneten Vehikel auf der gesamten Rückenpartie der Rhino-Maus topisch aufgetragen (100 µl), einmal täglich, an fünf aufeinanderfolgenden Tagen pro Woche, zwei Wochen lang ungefähr 72 h nach der letzten Behandlung wurde die dorsale Haut entfernt und in 0,5 Xiger Essigsäure 18 h bei 4-6°C belassen. Danach wurde eine ca. 2 x 5 cm^2 große Fläche herausgeschnitten, die Epidermis abgeschält, auf einen Objektträger aufgebracht (mit der dermalen Seite nach oben) und mittels Alkohol/Xylol wasserfrei gespült, bis die Epidermis durchsichtig erscheint. Die Probe wurde durch Uberziehen mit Permount fixiert und mikroskopisch ausgewertet. […]
structure (smiles),measurement,setting,value
"C/C(=C\c1cc(C(=O)O)no1)c1ccc2c(c1)C(C)(C)CCC2(C)C [Beispiel 17a, (E)-5-[2-(5,5,8,8-Tetramethyl-5,6,7,8-tetrahydro-naphth--2-yl)-1-propenyl]isoxazol-3-carbonsäure]",Reduktion des Utriculusdurchmessers in %,"Dosis 0,2 mg/ml","45,1%"
same,Reduktion des Utriculusdurchmessers in %,Dosis 2 mg/ml,"75,6%"
